Measured values as given in patent US6624149B2, “Method for nucleic acid transfection of cells” (Genteric, Inc., priority 2000, dated 2003).

System: rat salivary gland (submandibular gland)
Test: Intraductal transfection of rat salivary gland with pCMV.FOX.Luc-2, luciferase assay
Assay type: in vivo
Method: Nucleic acid/transition metal enhancer mixtures were prepared by sequentially adding deionized water or a buffered solution, DNA, and a desired transition metal enhancer to a polystyrene tube with mixing. “Free” (i.e., “Naked”) DNA controls were prepared by sequentially adding DNA to water or a buffered solution
Male Sprague-Dawley rats (260-280 g) were fasted the night prior to treatment. After administration of the anesthesia (see Section 6.1.3), both right and left salivary gland ducts (specifically, Wharton's duct) were cannulated with fine polyurethane tubing (i.d. 0.005″) and cemented into the desired location. Atropine was then administered subcutaneously (0.5 mg/kg) and, after eight minutes, 50 μl of the nucleic acid/transition metal enhancer mixture was injected, infused, instilled or administered at the ductal orifice or directly into the duct at any point along its length. See Goldfine, Nature Biotechnology 15:1378, 1997.
Regardless of whether a liposome/transition metal/nucleic acid mixture or a nucleic acid/transition metal enhancer mixture was delivered, the tubing and mixture was kept in place for ten additional minutes after application of the mixture prior to removal. At 48 hours post atropine administration, the rats were anesthetized by intraperitoneal injection of pentobarbital (50 mg/kg). The right and left submandibular glands were surgically removed, and the tissues were assayed for any observable reporter gene (luciferase of hGH) expression using the methods described below.
The presently claimed invention describes a new method using a combination of a transition metal enhancer and a nucleic acid of interest for gene delivery. The present invention provides a method which may enhance gene expression by improving the efficiency of gene delivery. This change in gene expression can be quantitated using various assays, such as the luciferase assay. de Wet et al., Molec. Cell Biol. 7:725, 1987. In various experiments described herein, the right and left submandibular glands were removed from the male Sprague-Dawley rats at 48 hours post administration of the pCMV.FOX.Luc-2 containing solution. In additional experiments other organs, such as the rat lungs, were used.
In experiments in which submandibular glands were tested, the amount of luciferase present in the right and left submandibular gland of each male Sprague-Dawley rat was measured independently and treated as separate, individual experiments (e.g., trials) because the amount of luciferase expressed by one submandibular gland is independent of the amount of luciferase expressed in the other submandibular gland. Therefore, each submandibular gland was independently lysed in lysis buffer (1.0 ml buffer per 0.1 g tissue) to create a lysis homogenate. The lysis buffer contained 100 mM K2PO4 pH 7.0, 1 mM dithiothreitol, and 1% Triton X-100. A 100 μl aliquot of lysis homogenate from each submandibular gland was analyzed for luciferase activity (de Wet et al., Molec. Cell Biol. 7:725, 1987) using a Monolight 2010 luminometer (Analytical Luminescence Laboratories). Accordingly, luciferase light emissions from each aliquot of the lysis homogenate were measured over a ten second period.
Activity was expressed as relative light units, values collectively representing the assay conditions, luciferase concentration, luminometer photomultiplier tube sensitivity and background. Using well known techniques, the luciferase light units may be converted, for example, to picograms of luciferase protein. See, e.g., Felgner et al., U.S. Pat. No. 5,580,899 at Example 13. All experiments were performed in duplicate. In experiments using submandibular glands, data from each individual submandibular gland lysis homogenate is reported as a single trial.

In the case of `[Cl][Co][Cl]` [CoCl2, cobalt chloride], the “Average relative light units” value (Table 4, CoCl2 0.3 mM, 32 μg DNA in 50 μl, 48 hours) is reported as 37219 relative light units and the “Average relative light units” value (Table 4, CoCl2 0.9 mM, 32 μg DNA in 50 μl, 48 hours) is reported as 44926 relative light units.
`[Cl][Cu]` [Cu, cuprous chloride] was tested, and the “Average relative light units” value (Table 3, metal chloride 0.6 mM, 32 μg DNA in 50 μl, Tris-HCl/EDTA, 48 hours, eight glands) was 17667 relative light units, the “Average relative light units” value (Table 3, metal chloride 0.9 mM, 32 μg DNA in 50 μl, Tris-HCl/EDTA, 48 hours, eight glands) was 42204 relative light units and the “Average relative light units” value (Table 3, metal chloride 1.2 mM, 32 μg DNA in 50 μl, Tris-HCl/EDTA, 48 hours, eight glands) was 17194 relative light units.
In the case of `[Cl][Ni][Cl]` [Ni, nickel chloride], the “Average relative light units” value (Table 2, metal chloride 0.3 mM, 32 μg DNA in 50 μl, 48 hours, eight glands) is reported as 18391 relative light units and the “Average relative light units” value (Table 2, metal chloride 0.9 mM, 32 μg DNA in 50 μl, 48 hours, eight glands) is reported as 65121 relative light units.
`CC(=O)[O-].CC(=O)[O-].[Zn+2]` [Zn(CH3CO2)2, zinc acetate] was tested, and the “Average relative light units” value (rat, in vivo) was 309965 relative light units.
`O=S(=O)([O-])[O-].[Zn+2]` [ZnSO4, zinc sulfate] was tested, and the “Average relative light units” value (Table 6, zinc 3.6 mM, 128 μg DNA in 50 μl, 48 hours) was 355676 relative light units.
